Data taken from patent US20250057909A1, “NOVEL USE OF ALANYL-GLUTAMINE AND OPHTHALMIC COMPOSITION COMPRISING ALANYL-GLUTAMINE” (SEINDA PHARMACEUTICAL GUANGZHOU CORPORATION, priority 2021, published 2025).
Marks after values point to notes of the source that are not given here.

Assays:
guinea pig skin = assay: Skin allergy test
corneal cells = assay: Vitro model of corneal ulcer: growth of corneal cells in culture in vitro; type: cell-based, ICR mice; details: cornea of immunised mice co-cultured with autologous leukocytes
Experimental: The rabbit corneas were taken and cut into pieces, 5-10 times volume of 5% triton solution was added and homogenized until there were no lumpy particles, then centrifuged at 3000 r/min for 10 min, and the supernatant was taken. 5 ml of the supernatant was taken and mixed with 5 ml of complete Freund's adjuvant to prepare a mixed solution for later use.
SPF grade ICR mice were divided into normal group, immune group, and cyclophosphamide group, 10 mice/group. The normal group received subcutaneous injection of 0.5 ml of physiological saline per mouse; Each mouse in the immune group and cyclophosphamide group was subcutaneously injected with the mixed solution+physiological saline, the mixed solution+cyclophosphamide 300 mg/kg respectively, and the injection sites were not overlapped; Injection was performed once every other day for a total of 10 times. 3 days after the last injection, the mice were euthanized using the bloodletting method, and the eyeballs were removed and cut into pieces under sterile conditions. At the same time, the cornea and the leukocytes separated from autologous blood were co-cultured in a 24-well culture plate.

[1] = 1 h after challenge and drug removal
[2] = 24 h after challenge and drug removal
[3] = 48 h after challenge and drug removal

Compound | Average score (guinea pig skin; [1]) | Number of allergic animals (guinea pig skin; [1]) | Total score (guinea pig skin; [1]) | Average score (guinea pig skin; [2]) | Number of allergic animals (guinea pig skin; [2]) | Total score (guinea pig skin; [2]) | Average score (guinea pig skin; [3]) | Number of allergic animals (guinea pig skin; [3]) | Total score (guinea pig skin; [3]) | Growth of corneal cells in culture in vitro, Number (corneal cells; Grow time 72 h) | Growth of corneal cells in culture in vitro, Percentage % (growth rate) (corneal cells; Grow time 72 h) | Growth of corneal cells in culture in vitro, Number (corneal cells; Grow time 120 h) | Growth of corneal cells in culture in vitro, Percentage % (growth rate) (corneal cells; Grow time 120 h)
O=[N+]([O-])c1ccc(Cl)c([N+](=O)[O-])c1 [2,4-dinitrochlorobenzene] | 2.2 | 10 | 22 | 1.7 | 10 | 17 | 1.0 | 10 | 10 | – | – | – | –
O=P1(N(CCCl)CCCl)NCCCO1 (stereo not shown) [cyclophosphamide] | – | – | – | – | – | – | – | – | – | 8 | 16.0** % | 11 | 22.0** %
